Test results reported in patent US8017612B2, “Piperazine compound and use thereof as a HCV polymerase inhibitor” (priority 2006, dated 2011).
pIC50: −log10 of the molar value.

Key:
[1] = target: T1, HCV polymerase (NS5B) type 1b (Hepatitis C virus genotype 1b, UniProt P26663); assay: Assay of enzyme (HCV polymerase) inhibitory activity, type 1b enzyme; format: biochemical, HCV BK strain (type 1b); details: HCV polymerase inhibitory activity IC50, 1b, type 1b enzyme
T1 construct: a region encoding NS5B (J Virol 1991 March, 65(3), 1105-13, 544 amino acids after deletion of 47 amino acids on the C-terminal); 6xHis (C); made in house; host or cells: Escherichia coli
Summary of the method: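 Rxn: NS5B 1b (BK, ΔC47, His6) 0.5 μg/ml; substrate RNA 5 μg/ml; ATP/GTP/CTP 50 μM, UTP 2 μM + [5,6-3H]UTP; 20 mM Tris pH 7.5, 5 mM MgCl2, 50 mM NaCl, 1 mM EDTA/DTT. 25 °C, 60 min. Stop with TCA/pyrophosphate, filter, scintillation count; IC50 vs. untreated.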

[2] = target: T2, HCV polymerase (NS5B) type 1a (Hepatitis C virus genotype 1a, UniProt P26664); assay: Assay of enzyme (HCV polymerase) inhibitory activity, type 1a enzyme; format: biochemical, HCV type 1a (cloned from the blood of patients); details: HCV polymerase inhibitory activity IC50, 1a, type 1a enzyme
T2 construct: made in house; host or cells: Escherichia coli (by the 'similar method' of the 1b enzyme)
Summary of the method: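 NS5B Δ47 C-term His6 (type 1a, 1.5 μg/ml); substrate RNA 5 μg/ml; ATP/GTP/CTP 50 μM, UTP 2 μM + [5,6-3H]UTP; Tris pH 7.5, MgCl2 5 mM; 25° C, 60 min. TCA/pyrophosphate stop, GF/B filter, scintillation. IC50 vs no-compound control.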

N#Cc1ncc2sc(N3CCN(S(=O)(=O)c4ccc(OC(F)(F)F)cc4)[C@@H](C(=O)NCc4ccc(OC(F)F)cc4)C3)nc2n1 [Example 1036, (R)-4-(5-cyano-thiazolo[4,5-d]pyrimidin-2-yl)-1-(4-trifluoromethoxy-benzenesulfonyl)-piperazine-2-carboxylic acid 4-difluoromethoxy-benzylamide]
pIC50 [1]: > 7.00
pIC50 [2]: > 7.00

CCn1ncc2sc(N3CCN(S(=O)(=O)c4ccc(C(F)(F)F)cc4)[C@@H](C(=O)NCc4ccc(OC(F)(F)F)cc4)C3)nc2c1=O [Example 1037, (R)-4-(5-ethyl-4-oxo-4,5-dihydro-thiazolo[4,5-d]pyridazin-2-yl)-1-(4-trifluoromethyl-benzenesulfonyl)-piperazine-2-carboxylic acid 4-trifluoromethoxy-benzylamide]
pIC50 [1]: > 7.00
pIC50 [2]: > 7.00

O=C(NCc1ccc(OC(F)(F)F)cc1)[C@H]1CN(c2nn3c(=O)cc(C(F)(F)F)nc3s2)CCN1S(=O)(=O)c1ccc(OC(F)(F)F)cc1 [Example 1038, (R)-4-(5-oxo-7-trifluoromethyl-5H-[1,3,4]thiadiazolo[3,2-a]pyrimidin-2-yl)-1-(4-trifluoromethoxy-benzenesulfonyl)-piperazine-2-carboxylic acid 4-trifluoromethoxy-benzylamide]
pIC50 [1]: 6.00 to 7.00
pIC50 [2]: 6.00 to 7.00

Cc1ncc2sc(N3CCN(S(=O)(=O)c4ccc(OC(F)(F)C(F)F)cc4)[C@@H](C(=O)NCc4ccc(OC(F)F)cc4)C3)nc2n1 [Example 1039, (R)-4-(5-methyl-thiazolo[4,5-d]pyrimidin-2-yl)-1-[4-(1,1,2,2-tetrafluoro-ethoxy)-benzenesulfonyl]-piperazine-2-carboxylic acid 4-difluoromethoxy-benzylamide]
pIC50 [1]: > 7.00
pIC50 [2]: > 7.00

O=C(NCc1ccc(OC(F)F)cc1F)[C@H]1CN(c2nc3nc(C4CC4)ncc3s2)CCN1S(=O)(=O)c1ccc(C(F)(F)F)cc1 [Example 1040, (R)-4-(5-cyclopropyl-thiazolo[4,5-d]pyrimidin-2-yl)-1-(4-trifluoromethyl-benzenesulfonyl)-piperazine-2-carboxylic acid 4-difluoromethoxy-2-fluoro-benzylamide]
pIC50 [1]: > 7.00
pIC50 [2]: > 7.00

CN(C)C(=O)c1ncc2sc(N3CCN(S(=O)(=O)c4ccc(OC(F)(F)F)cc4)[C@@H](C(=O)NCc4ccc(OC(F)(F)F)cc4)C3)nc2n1 [Example 1041, 2-[(R)-4-(4-trifluoromethoxy-benzenesulfonyl)-3-(4-trifluoromethoxy-benzylcarbamoyl)-piperazin-1-yl]-thiazolo[4,5-d]pyrimidine-5-carboxylic acid dimethylamide]
pIC50 [1]: > 7.00
pIC50 [2]: > 7.00

O=C(NCc1ccc(OC(F)F)cc1F)[C@H]1CN(c2nc3nc(C(F)(F)F)ncc3s2)CCN1S(=O)(=O)c1ccc(C(F)(F)F)cc1 [Example 1042, (R)-1-(4-trifluoromethyl-benzenesulfonyl)-4-(5-trifluoromethyl-thiazolo[4,5-d]pyrimidin-2-yl)-piperazine-2-carboxylic acid 4-difluoromethoxy-2-fluoro-benzylamide]
pIC50 [1]: > 7.00
pIC50 [2]: > 7.00

COCc1ncc2sc(N3CCN(S(=O)(=O)c4ccc(OC(F)(F)F)cc4)[C@@H](C(=O)NCc4ccc(OC(F)(F)F)cc4)C3)nc2n1 [Example 1043, (R)-4-(5-methoxymethyl-thiazolo[4,5-d]pyrimidin-2-yl)-1-(4-trifluoromethoxy-benzenesulfonyl)-piperazine-2-carboxylic acid 4-trifluoromethoxy-benzylamide]
pIC50 [1]: > 7.00
pIC50 [2]: > 7.00

O=C(NCc1ccc(OC(F)F)cc1F)[C@H]1CN(c2nc3nc(C(F)(F)F)ncc3s2)CCN1S(=O)(=O)c1ccc(OC(F)(F)F)cc1 [Example 1044, (R)-1-(4-trifluoromethoxy-benzenesulfonyl)-4-(5-trifluoromethyl-thiazolo[4,5-d]pyrimidin-2-yl)-piperazine-2-carboxylic acid 4-difluoromethoxy-2-fluoro-benzylamide]
pIC50 [1]: > 7.00
pIC50 [2]: > 7.00

O=C(NCc1ccc(OC(F)F)cc1F)[C@H]1CN(c2nc3nc(C4CC4)ncc3s2)CCN1S(=O)(=O)c1ccc(OC(F)(F)F)cc1 [Example 1045, (R)-4-(5-cyclopropyl-thiazolo[4,5-d]pyrimidin-2-yl)-1-(4-trifluoromethoxy-benzenesulfonyl)-piperazine-2-carboxylic acid 4-difluoromethoxy-2-fluoro-benzylamide]
pIC50 [1]: > 7.00
pIC50 [2]: > 7.00

CNC(=O)c1ncc2sc(N3CCN(S(=O)(=O)c4ccc(OC(F)(F)F)cc4)[C@@H](C(=O)NCc4ccc(OC(F)(F)F)cc4)C3)nc2n1 [Example 1046, 2-[(R)-4-(4-trifluoromethoxy-benzenesulfonyl)-3-(4-trifluoromethoxy-benzylcarbamoyl)-piperazin-1-yl]-thiazolo[4,5-d]pyrimidine-5-carboxylic acid methylamide]
pIC50 [1]: > 7.00
pIC50 [2]: > 7.00

CC(C)(O)c1ncc2sc(N3CCN(S(=O)(=O)c4ccc(OC(F)(F)F)cc4)[C@@H](C(=O)NCc4ccc(OC(F)(F)F)cc4)C3)nc2n1 [Example 1047, (R)-4-[5-(1-hydroxy-1-methyl-ethyl)-thiazolo[4,5-d]pyrimidin-2-yl]-1-(4-trifluoromethoxy-benzenesulfonyl)-piperazine-2-carboxylic acid 4-trifluoromethoxy-benzylamide]
pIC50 [1]: > 7.00
pIC50 [2]: > 7.00

CC(=O)c1ncc2sc(N3CCN(S(=O)(=O)c4ccc(OC(F)(F)F)cc4)[C@@H](C(=O)NCc4ccc(OC(F)(F)F)cc4)C3)nc2n1 [Example 1048, (R)-4-(5-acetyl-thiazolo[4,5-d]pyrimidin-2-yl)-1-(4-trifluoromethoxy-benzenesulfonyl)-piperazine-2-carboxylic acid 4-trifluoromethoxy-benzylamide]
pIC50 [1]: > 7.00
pIC50 [2]: > 7.00

O=C(NCc1ccc(OC(F)(F)F)cc1)[C@H]1CN(c2nn3c(C(F)(F)F)cc(=O)nc3s2)CCN1S(=O)(=O)c1ccc(OC(F)(F)F)cc1 [Example 1049, (R)-4-(7-oxo-5-trifluoromethyl-7H-[1,3,4]thiadiazolo[3,2-a]pyrimidin-2-yl)-1-(4-trifluoromethoxy-benzenesulfonyl)-piperazine-2-carboxylic acid 4-trifluoromethoxy-benzylamide]
pIC50 [1]: > 7.00
pIC50 [2]: > 7.00

COc1ccc2nc(N3CCN(S(=O)(=O)c4ccc(OC(F)(F)F)cc4)[C@@H](C(=O)NCc4ccc(OC(F)(F)F)cc4)C3)sc2n1 [Example 1050, (R)-4-(5-methoxy-thiazolo[5,4-b]pyridin-2-yl)-1-(4-trifluoromethoxy-benzenesulfonyl)-piperazine-2-carboxylic acid 4-trifluoromethoxy-benzylamide]
pIC50 [1]: 6.00 to 7.00
pIC50 [2]: 6.00 to 7.00

Cc1ncc2sc(N3CCN(S(=O)(=O)c4ccc(OC(F)(F)C(F)F)cc4)[C@@H](C(=O)NCc4ccc(OC(F)(F)F)cc4)C3)nc2n1 [Example 1051, (R)-4-(5-methyl-thiazolo[4,5-d]pyrimidin-2-yl)-1-[4-(1,1,2,2-tetrafluoro-ethoxy)-benzenesulfonyl]-piperazine-2-carboxylic acid 4-trifluoromethoxy-benzylamide]
pIC50 [1]: > 7.00
pIC50 [2]: > 7.00

O=C(NCc1ccc(OC(F)(F)F)cc1)[C@H]1CN(c2nc3nc(CO)ncc3s2)CCN1S(=O)(=O)c1ccc(C(F)(F)F)cc1 [Example 1052, (R)-4-(5-hydroxymethyl-thiazolo[4,5-d]pyrimidin-2-yl)-1-(4-trifluoromethyl-benzenesulfonyl)-piperazine-2-carboxylic acid 4-trifluoromethoxy-benzylamide]
pIC50 [1]: > 7.00
pIC50 [2]: > 7.00

O=C(NCc1ccc(OC(F)F)cc1)[C@H]1CN(c2nn3ccc(=O)nc3s2)CCN1S(=O)(=O)c1ccc(OC(F)(F)F)cc1 [Example 1053, (R)-4-(7-oxo-7H-[1,3,4]thiadiazolo[3,2-a]pyrimidin-2-yl)-1-(4-trifluoromethoxy-benzenesulfonyl)-piperazine-2-carboxylic acid 4-difluoromethoxy-benzylamide]
pIC50 [1]: > 7.00
pIC50 [2]: > 7.00

CON(C)C(=O)c1ncc2sc(N3CCN(S(=O)(=O)c4ccc(OC(F)(F)F)cc4)[C@@H](C(=O)NCc4ccc(OC(F)(F)F)cc4)C3)nc2n1 [Example 1054, 2-[(R)-4-(4-trifluoromethoxy-benzenesulfonyl)-3-(4-trifluoromethoxy-benzylcarbamoyl)-piperazin-1-yl]-thiazolo[4,5-d]pyrimidine-5-carboxylic acid methoxy-methyl-amide]
pIC50 [1]: > 7.00
pIC50 [2]: > 7.00

COCc1nc(N)c2sc(N3CCN(S(=O)(=O)c4ccc(OC(F)(F)F)cc4)[C@@H](C(=O)NCc4ccc(OC(F)(F)F)cc4)C3)nc2n1 [Example 1055, (R)-4-(7-amino-5-methoxymethyl-thiazolo[4,5-d]pyrimidin-2-yl)-1-(4-trifluoromethoxy-benzenesulfonyl)-piperazine-2-carboxylic acid 4-trifluoromethoxy-benzylamide]
pIC50 [1]: > 7.00
pIC50 [2]: > 7.00
